Among the data in ChEMBL document CHEMBL1133291, “The discovery of non-basic atrial natriuretic peptide clearance receptor antagonists. Part 1” (Bioorg Med Chem Lett, 2000) are Ki and Selectivity values, retold here.

Numbered stars: 1 amine (or outer) side, 2 acyl side, 3 side chain; on linkers, the order of the positions; unused ones are H or OH. Square brackets hold non-standard residues; d marks the D form. Peptide text beside a SMILES is read from it. * marks the point of attachment. NH(2S-methylbutyl) = CC[C@H](C)CN*; 2Naphthoyl = O=C(c1ccc2ccccc2c1)*; X1 = O=C(Cc1ccc(N[*:1])cc1)[*:2]; PhAc = O=C(Cc1ccccc1)*; X2 = CCC[C@H](C)CN*

For assay [1], the target named is T1, Atrial natriuretic peptide receptor 1 (Homo sapiens, UniProt P16066).
T1 sequence (P16066 whole entry): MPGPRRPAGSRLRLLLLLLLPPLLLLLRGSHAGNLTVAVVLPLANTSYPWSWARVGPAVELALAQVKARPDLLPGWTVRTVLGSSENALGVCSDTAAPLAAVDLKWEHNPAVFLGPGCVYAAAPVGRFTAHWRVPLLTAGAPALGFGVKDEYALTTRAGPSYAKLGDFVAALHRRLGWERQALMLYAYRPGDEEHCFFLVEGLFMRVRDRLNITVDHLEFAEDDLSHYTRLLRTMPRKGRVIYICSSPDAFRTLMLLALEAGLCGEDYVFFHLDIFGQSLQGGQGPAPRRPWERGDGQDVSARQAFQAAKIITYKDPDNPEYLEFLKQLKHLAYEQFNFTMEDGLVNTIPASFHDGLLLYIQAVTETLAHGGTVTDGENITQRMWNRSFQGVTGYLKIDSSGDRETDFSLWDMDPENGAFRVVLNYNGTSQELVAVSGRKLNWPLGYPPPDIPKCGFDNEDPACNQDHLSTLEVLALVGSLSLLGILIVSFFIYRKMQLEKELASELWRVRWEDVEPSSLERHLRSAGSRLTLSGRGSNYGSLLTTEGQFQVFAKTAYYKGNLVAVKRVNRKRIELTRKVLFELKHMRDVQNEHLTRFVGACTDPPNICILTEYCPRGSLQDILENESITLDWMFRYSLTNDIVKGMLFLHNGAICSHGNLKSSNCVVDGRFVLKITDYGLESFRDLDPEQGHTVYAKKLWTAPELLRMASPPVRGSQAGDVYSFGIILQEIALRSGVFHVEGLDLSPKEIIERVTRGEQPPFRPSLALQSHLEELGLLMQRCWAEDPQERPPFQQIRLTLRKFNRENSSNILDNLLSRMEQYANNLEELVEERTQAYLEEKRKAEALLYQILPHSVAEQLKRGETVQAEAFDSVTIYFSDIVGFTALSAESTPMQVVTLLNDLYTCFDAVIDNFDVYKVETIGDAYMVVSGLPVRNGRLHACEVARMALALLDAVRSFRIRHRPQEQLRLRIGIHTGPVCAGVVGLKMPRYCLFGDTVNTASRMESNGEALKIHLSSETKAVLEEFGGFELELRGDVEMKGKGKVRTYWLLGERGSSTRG
In words: Displacement of [125I]- ANP from the Atrial natriuretic peptide receptor A. It counts as tissue-based, Cardiac atrium. For orientation: In a radioligand displacement assay an active substance lowers the binding of a labelled ligand.

For assay [2], the target named is T2, Atrial natriuretic peptide receptor 3 (Homo sapiens, UniProt P17342).
T2 sequence (P17342 whole entry): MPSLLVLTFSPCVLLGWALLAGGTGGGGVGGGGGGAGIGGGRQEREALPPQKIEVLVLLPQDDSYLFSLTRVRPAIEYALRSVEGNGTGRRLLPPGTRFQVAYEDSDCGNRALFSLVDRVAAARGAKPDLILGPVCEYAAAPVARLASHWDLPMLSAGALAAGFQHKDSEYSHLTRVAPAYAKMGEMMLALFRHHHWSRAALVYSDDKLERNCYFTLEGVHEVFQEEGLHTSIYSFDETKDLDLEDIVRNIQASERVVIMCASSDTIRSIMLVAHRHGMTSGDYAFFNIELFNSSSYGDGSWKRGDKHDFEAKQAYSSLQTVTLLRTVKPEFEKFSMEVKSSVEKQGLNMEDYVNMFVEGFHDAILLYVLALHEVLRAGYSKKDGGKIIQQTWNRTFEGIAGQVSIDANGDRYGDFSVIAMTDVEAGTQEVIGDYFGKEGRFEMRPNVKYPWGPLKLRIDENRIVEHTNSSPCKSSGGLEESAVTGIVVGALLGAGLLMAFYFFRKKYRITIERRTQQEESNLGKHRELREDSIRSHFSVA
In words: Displacement of [125I]- ANP from the Atrial Natriuretic Peptide Clearance Receptor. It counts as tissue-based, Cardiac atrium.

The nature of assay [3]: Ratio of binding affinity for ANP-CR receptor and ANP-A receptor.

`CC[C@H](C)[C@H](NC(=O)[C@H](CCCNC(=N)N)NC(=O)Cc1ccc(NC(=O)c2ccc3ccccc3c2)cc1)C(=O)N[C@@H](CC(=O)O)C(=O)N[C@@H](CCCNC(=N)N)C(N)=O` (2Naphthoyl-[X1]RIDR-NH2): the inhibition constant Ki in assay [1] and in assay [2] was 2600 nM in each case.
For the compound `CC[C@H](C)[C@@H]1NC(=O)[C@H](CCCN=C(N)N)NC(=O)[C@H](C)NC(=O)[C@H]([C@@H](C)CC)NC(=O)[C@H](CCCN=C(N)N)NC(=O)CNC(=O)CNC(=O)[C@H](Cc2ccccc2)NC(=O)[C@H](N)CSSC[C@H](C(=O)O)NC(=O)CNC(=O)[C@H](CC(C)C)NC(=O)CNC(=O)[C@H](CO)NC(=O)[C@H](CCC(N)=O)NC(=O)[C@H](C)NC(=O)CNC1=O`, the inhibition constant Ki in assay [1] and in assay [2] was 87 nM throughout.
`CCC[C@H](C)CNC(=O)[C@H](CCCNC(=N)N)NC(=O)[C@H](CC(=O)O)NC(=O)[C@@H](NC(=O)[C@H](CCCNC(=N)N)NC(C)=O)[C@@H](C)CC` (Ac-RIDR-X2): the Ki in assay [1] and in assay [2] was 2900 nM each time.
On to `CC[C@H](C)CNC(=O)[C@H](CCCN=C(N)N)NC(=O)[C@H](CC(=O)O)NC(=O)[C@H](C)NC(=O)[C@H](CCCN=C(N)N)NC(=O)Cc1ccc(NC(=O)c2ccc3ccccc3c2)cc1` (2Naphthoyl-[X1]RADR-{NH(2S-methylbutyl)}), for which the Ki in assay [1] and in assay [2] was 680 nM throughout.
Turning to `CC[C@H](C)CNC(=O)[C@H](C)NC(=O)[C@H](CC(=O)O)NC(=O)[C@@H](NC(=O)[C@H](C)NC(=O)Cc1ccc(NC(=O)c2ccc3ccccc3c2)cc1)[C@@H](C)CC` (2Naphthoyl-[X1]AIDA-{NH(2S-methylbutyl)}), the Ki in assay [1] and in assay [2] was 65 nM throughout.
Consider `CC[C@H](C)CNC(=O)[C@H](CCCN=C(N)N)NC(=O)[C@H](CC(=O)O)NC(=O)[C@@H](NC(=O)[C@H](C)NC(=O)Cc1ccc(NC(=O)c2ccc3ccccc3c2)cc1)[C@@H](C)CC` (2Naphthoyl-[X1]AIDR-{NH(2S-methylbutyl)}), for which the Ki in assay [1] and in assay [2] was 0.3 nM each time.
Take `CC[C@H](C)CNC(=O)[C@H](CCCNC(=N)N)NC(=O)[C@H](C)NC(=O)[C@@H](NC(=O)[C@H](CCCNC(=N)N)NC(=O)Cc1ccc(NC(=O)c2ccc3ccccc3c2)cc1)[C@@H](C)CC` (2Naphthoyl-[X1]RIAR-{NH(2S-methylbutyl)}): the Ki in assay [1] and in assay [2] was 62 nM in each case.
Turning to `CC[C@H](C)CNC(=O)[C@H](CCCN=C(N)N)NC(=O)[C@H](CC(=O)O)NC(=O)[C@@H](NC(=O)[C@H](CCCN=C(N)N)NC(=O)Cc1ccc(NC(=O)c2ccc3ccccc3c2)cc1)[C@@H](C)CC` (2Naphthoyl-[X1]RIDR-{NH(2S-methylbutyl)}), the results for the Ki in assay [1] and in assay [2] were over 10 nM and 0.48 nM, respectively. In addition, the Selectivity in assay [3] is over 20000.
Consider `CC[C@H](C)[C@@H]1NC(=O)[C@H](C)NC(=O)CNC(=O)CNC(=O)[C@H](Cc2ccccc2)NC(=O)[C@H](N)CSSC[C@H](C(=O)O)NC(=O)CNC(=O)[C@H](CC(C)C)NC(=O)CNC(=O)[C@H](CO)NC(=O)[C@H](CCC(N)=O)NC(=O)[C@H](C)NC(=O)CNC(=O)[C@H]([C@@H](C)CC)NC(=O)[C@H](CCCN=C(N)N)NC(=O)[C@H](CC(=O)O)NC1=O`, for which the inhibition constant (Ki) in assay [1] and in assay [2] was 0.49 nM throughout.
With `CCC[C@H](C)CNC(=O)[C@H](CCCN=C(N)N)NC(=O)[C@H](CC(=O)O)NC(=O)[C@@H](NC(=O)[C@H](CCCN=C(N)N)NC(=O)Cc1ccccc1)[C@@H](C)CC` (PhAc-RIDR-X2), the inhibition constant (Ki) in assay [1] and in assay [2] was 539 nM each time.
With `CC[C@H](C)CNC(=O)[C@H](C)NC(=O)[C@H](CC(=O)O)NC(=O)[C@@H](NC(=O)[C@H](CCCN=C(N)N)NC(=O)Cc1ccc(NC(=O)c2ccc3ccccc3c2)cc1)[C@@H](C)CC` (2Naphthoyl-[X1]RIDA-{NH(2S-methylbutyl)}), the Ki in assay [1] and in assay [2] was 0.4 nM in each case.
Turning to `CC[C@H](C)[C@@H]1NC(=O)[C@H](CCCN=C(N)N)NC(=O)[C@H](CC(=O)O)NC(=O)[C@H]([C@@H](C)CC)NC(=O)[C@H](CCCN=C(N)N)NC(=O)CNC(=O)CNC(=O)[C@H](Cc2ccccc2)NC(=O)[C@H](NC(=O)[C@H](CO)NC(=O)[C@H](CO)NC(=O)[C@@H](N)CCCN=C(N)N)CSSC[C@H](C(=O)O)NC(=O)[C@H](C)NC(=O)CNC1=O`, the Ki (as a rule, a dissociation constant, usually derived from enzyme kinetics or from competition with a known ligand) in assay [1] was over 10 nM. Moreover, in assay [3], the Selectivity came out at 6100.
The compound `CC[C@H](C)[C@@H]1NC(=O)[C@H](CCCNC(=N)N)NC(=O)[C@H](CC(=O)O)NC(=O)[C@H]([C@@H](C)CC)NC(=O)[C@H](CCCNC(=N)N)NC(=O)CNC(=O)CNC(=O)[C@H](Cc2ccccc2)NC(=O)[C@@H](NC(=O)[C@H](CO)NC(=O)[C@H](CO)NC(=O)[C@@H](N)CCCNC(=N)N)CSSC[C@@H](C(=O)O)NC(=O)[C@H](C)NC(=O)CNC1=O` yielded a Ki in assay [2] of 1.64 nM.
